pEC50, pIC50: −log10 of the molar value.
Experiments:
Experiment in all cases: NHL cell line viability/apoptosis 384-well flow cytometry assay
Assay type in all cases: cell-based
[1] = tested on: SU-DHL-10; details: SU-DHL-10 (DLBCL), 120 hours
Procedure: (§1) The following exemplary anti-proliferative assay uses exemplary non-Hodgkin lymphoma (NIL) cell lines (including diffuse large B-cell lymphoma (DLBCL), follicular lymphoma (FL), and mantle cell lymphoma (MCL)) (Table 5). The in vitro growth inhibitory activity of Compound 1 described herein was evaluated using a 384-well flow cytometry assay.
(§2) The cell lines in Table 5 were plated in 384-well flat bottom plates and assessed with increasing concentrations of compound ranging from 0.00015 to 10 μM or dimethyl sulfoxide (DMSO) control. The final concentration of DMSO was 0.1% (v/v). Following the addition of Compound 1 or DMSO and incubation for 120 hours, cell number and cell death were analyzed by flow cytometry (Attune®, Thermo Fisher) using Annexin V and the live-cell impermeant DNA dye, DRAQ7. Phosphatidylserine translocates from the inner layer to the outer layer of the cell membrane early in apoptosis and Annexin V binds to the exposed phosphatidylserine found on the surface of an apoptotic cell. The vital dye DRAQ7 is excluded by intact live cells and only stains cells that have died as a result of apoptosis or necrosis.
(§3) Flow cytometry data analysis was then performed using the Flow Jo_v10 software to determine the number of viable cells (Annexin V and DRAQ7 double negative staining cells) and percentage of apoptotic cells (Annexin V positive cells) for each condition. The live cell count for every concentration was normalized to the DMSO control (considered as 100%) to calculate the percentage of viable cells remaining after treatment and graphed using GraphPad Prism 7.03. The IC50 (50% inhibitory concentration) and Emax (maximum efficacy achieved) values were then calculated by performing nonlinear regression curve fitting using log(inhibitor) vs. normalized response—variable slope analysis on GraphPad Prism 7.03. Area under the curve (AUC) was calculated by performing area under curve analysis on GraphPad Prism 7.03. Similarly, for apoptosis analysis, the percentage of apoptosis combining both “early” (Annexin V positive and DRAQ7 negative) and “late” apoptosis (Annexin V and DRAQ7 positive) cell gates relative to DMSO was graphed using GraphPad Prism 7.03. The AUC, EC50 (concentration of Compound 1 that produces half-maximal apoptosis response) and Ymax (maximal percentage of apoptosis achieved) values from apoptosis curves were calculated by performing area under curve analysis and nonlinear regression curve fitting using log(agonist) vs. normalized response—Variable slope analysis on GraphPad Prism 7.03.
(§4) In Table 6, dose-response proliferation curves for the panel of NHL cell lines and non-linear curve-fit regression were used to determine IC50, AUC, and Emax for % viable cells (Emax for viability varies between 100 at low doses and 0 at high doses, which corresponds to inhibition of all viable cells), and dose-response apoptosis curves were used to determine the EC50, AUC, and Ymax for % apoptosis (Ymax for apoptosis varies from 0 at low doses and 100 at higher doses which corresponds to death of all cells). Tumor cells were exposed to serial dilutions (0.00015 to 10 μM) of Compound 1 or dimethyl sulfoxide (DMSO) control for 5 days. Viability and apoptosis for all cell lines was determined by Annexin V/[…] flow cytometry.

[2] = tested on: VAL; details: VAL (DLBCL), 120 hours
Procedure: as §1, §2, §3, §4

[3] = tested on: NU-DUL-1; details: NU-DUL-1 (DLBCL), 120 hours
Procedure: as §1, §2, §3, §4

[4] = tested on: TMD8; details: TMD8 (DLBCL), 120 hours
Procedure: as §1, §2, §3, §4

[5] = tested on: CARNAVAL; details: CARNAVAL (DLBCL), 120 hours
Procedure: as §1, §2, §3, §4

[6] = tested on: OCI-LY7; details: OCI-LY7 (DLBCL), 120 hours
Procedure: as §1, §2, §3, §4

[7] = tested on: RC-K8; details: RC-K8 (DLBCL), 120 hours
Procedure: as §1, §2, §3, §4

[8] = tested on: U-2932; details: U-2932 (DLBCL), 120 hours
Procedure: as §1, §2, §3, §4

[9] = tested on: ULA; details: ULA (DLBCL), 120 hours
Procedure: as §1, §2, §3, §4

[10] = tested on: NU-DHL-1; details: NU-DHL-1 (DLBCL), 120 hours
Procedure: as §1, §2, §3, §4

[11] = tested on: Toledo; details: Toledo (DLBCL), 120 hours
Procedure: as §1, §2, §3, §4

[12] = tested on: OCI-LY10; details: OCI-LY10 (DLBCL), 120 hours
Procedure: as §1, §2, §3, §4

[13] = read-out: IC50 (% Viable Cells)
[14] = Homo sapiens, read-out: IC50 (% Viable Cells)

Structure (SMILES): O=C1CC[C@H](N2C(=O)c3cccc(NCc4ccc(CN5CC(N6CCOCC6)C5)cc4F)c3C2=O)C(=O)N1 [Compound 1, (S)-2-(2,6-dioxopiperidin-3-yl)-4-((2-fluoro-4-((3-morpholinoazetidin-1-yl)methyl)benzyl)amino)isoindoline-1,3-dione]
- pEC50 ([1]; Homo sapiens, SU-DHL10): 7.40
- pIC50 ([1]; Homo sapiens, SU-DHL10, read-out: IC50 (% Viable Cells)): 8.21
- AUC (% Viable Cells) [1]: 10.36
- AUC (Apoptosis) [1]: 903
- Emax (% Viable Cells) [1]: 0.6716%
- Ymax (Apoptosis) [1]: 92.27%
- AUC (% Viable Cells) [2]: 14.62
- AUC (Apoptosis) [2]: 936.7
- pEC50 [2]: 9.22
- Emax (% Viable Cells) [2]: 0.9632%
- Ymax (Apoptosis) [2]: 95.68%
- pIC50 [2, 13]: 9.24
- pEC50 ([3]; Homo sapiens): 7.20
- pIC50 [3, 14]: 7.45
- AUC (% Viable Cells) [3]: 22.12
- AUC (Apoptosis) [3]: 962.8
- Emax (% Viable Cells) [3]: 0.0228%
- Ymax (Apoptosis) [3]: 99.84%
- pEC50 ([4]; Homo sapiens): 8.21
- pIC50 [4, 14]: 8.61
- AUC (% Viable Cells) [4]: 4.187
- AUC (Apoptosis) [4]: 963.3
- Emax (% Viable Cells) [4]: 0.245%
- Ymax (Apoptosis) [4]: 97.2%
- AUC (% Viable Cells) [5]: 110.6
- AUC (Apoptosis) [5]: 708.7
- pEC50 [5]: 6.82
- Emax (% Viable Cells) [5]: 7.134%
- Ymax (Apoptosis) [5]: 77.84%
- pIC50 [5, 13]: 8.04
- pEC50 ([6]; Homo sapiens): 7.79
- pIC50 [6, 14]: 8.19
- AUC (% Viable Cells) [6]: 48.18
- AUC (Apoptosis) [6]: 682.7
- Emax (% Viable Cells) [6]: 4.191%
- Ymax (Apoptosis) [6]: 71.18%
- pEC50 ([7]; Homo sapiens, RCK8): 7.13
- pIC50 ([7]; Homo sapiens, RCK8, read-out: IC50 (% Viable Cells)): 8.47
- AUC (% Viable Cells) [7]: 115.7
- AUC (Apoptosis) [7]: 349.2
- Emax (% Viable Cells) [7]: 10.06%
- Ymax (Apoptosis) [7]: 26.31%
- pEC50 ([8]; Homo sapiens, U2932): 6.25
- pIC50 ([8]; Homo sapiens, U2932, read-out: IC50 (% Viable Cells)): 7.44
- AUC (% Viable Cells) [8]: 163.7
- AUC (Apoptosis) [8]: 212.8
- Emax (% Viable Cells) [8]: 12.8%
- Ymax (Apoptosis) [8]: 25.81%
- AUC (% Viable Cells) [9]: 0.5518
- AUC (Apoptosis) [9]: 995.3
- pEC50 [9]: 8.75
- Emax (% Viable Cells) [9]: 0.02523%
- Ymax (Apoptosis) [9]: 99.76%
- pIC50 [9, 13]: 9.00
- pEC50 ([10]; Homo sapiens): 8.90
- pIC50 [10, 14]: 8.97
- AUC (% Viable Cells) [10]: 12.37
- AUC (Apoptosis) [10]: 981.8
- Emax (% Viable Cells) [10]: 0.4919%
- Ymax (Apoptosis) [10]: 99.17%
- pEC50 ([11]; Homo sapiens): 6.65
- pIC50 [11, 14]: 8.70
- AUC (% Viable Cells) [11]: 112.3
- AUC (Apoptosis) [11]: 231.4
- Emax (% Viable Cells) [11]: 8.56%
- Ymax (Apoptosis) [11]: 27.5%
- pEC50 ([12]; Homo sapiens): 6.49
- pIC50 [12, 14]: 7.85
- AUC (% Viable Cells) [12]: 125.3
- AUC (Apoptosis) [12]: 188.9
- Emax (% Viable Cells) [12]: 10.16%
- Ymax (Apoptosis) [12]: 22.31%

From patent publication US11390617B2, “Methods of treating non-Hodgkin lymphoma using 2-(2,6-dioxopiperidin-3-yl)-4-((2-fluoro-4-((3-morpholinoazetidin-1-yl)methyl)benzyl)amino)isoindoline-1,3-dione” (Celgene Corporation, priority 2019, dated 2022)
